Measured values published in US6528049B2, “Bisexual attractants, aggregants and arrestants for adults and larvae of codling moth and other species of lepidoptera” (Trece, Inc., priority 1999, dated 2003).

Assays:
Type in all cases: in vivo, Cydia pomonella
[1] = system: male codling moth; experiment: Pheromone preference paired-trap test: pheromone alone vs pheromone + HPV; conditions: for % of pheromone-alone capture (line under HPV + Pheromone value) / Male CM Captured, HPV + Pheromone Trap: ± SEM / Male CM Captured, HPV + Pheromone Trap ± SEM / Average % Change in ♂♂ CM Capture: Table 8; for Average % Change in ♂♂ CM Capture: average of four orchards
Text: Interaction of synthetic apple and pear odor blends, described above in Table 2, and their effect on the attractancy of synthetic pheromone to codling moth was also studied. For that purpose, series of paired-traps containing pheromone alone or pheromone in combination with synthetic host plant volatile blends were placed in walnut orchards.
Interaction of individual synthetic host plant volatiles or blends on the attractiveness of synthetic male pheromone to male codling moth administered in paired traps with pheromone alone or with pheromone and attractant 10 mg/red septum was also studied.
Pheromone traps (sticky wing traps, Trécé, Inc.,) were hung as pairs: a pheromone only baited-trap vs. a pheromone+HPV blend-baited trap. The two traps of a test pair were attached in close competitive proximity (120 cm apart) on a common hanger bar (PVC pipe). The paired-trap bars were hung 5-6 meters high on the outer canopies of trees. A single pair-trap was hung per tree and different replicate test trees were separated by five rows in a matrix through the orchard. Each pheromone trap was baited with ½ of a commercial pheromone-impregnated rubber septum (Trécé, Inc.). Septa were sectioned by a razor blade. The HPV blends evaporated from their own separate impregnated rubber septa containing 10 mg diluted in hexane/septum).
Tests were conducted in a Harley English walnut orchard. Tests spanned the entire two year seasons April-October with traps checked, males sexed, counted and removed every 2-7 days. Significant effect on pheromone trap capture were judged by paired tests either T-test or a nonparametric test.

[2] = system: codling moth; experiment: Septa colour and loading dose trap study; parameters: ♂♂ ± SEM / ♀♀ ± SEM: unit not given here
Method: Since there have been differences observed between traps containing gray, white or red septa, a study was performed to determine the significance of the specific septa and their effect on the increase or decrease of attractancy. […]

[3] = system: codling moth; experiment: Trap capture with purified (2E,4E) and (2E,4Z) 2,4-decadienoic acid esters; conditions: 1 mg dose/gray septum; four orchards; means of 21 trap checks
Method: In this study, test compounds were highly purified synthetic samples. The purities of the compounds are expressed as percentages. Individual traps were baited with 1 mg dose/gray septum; five replicate blocks in four orchards; means of 21 total trap checks.

[4] = 0.1 mg A, Gray Septa, High (high population conventional orchard)
[5] = 0.1 mg A, Gray Septa, Low (low population organic orchard)
[6] = 0.1 mg A, Red Septa, High (high population conventional orchard)
[7] = 0.1 mg A, Red Septa, Low (low population organic orchard)
[8] = 1.0 mg A, Gray Septa, High (high population conventional orchard)
[9] = 1.0 mg A, Gray Septa, Low (low population organic orchard)
[10] = 1.0 mg A, Red Septa, Low (low population organic orchard)
[11] = 3 mg A, Gray Septa, High (high population conventional orchard)
[12] = 3 mg A, Gray Septa, Low (low population organic orchard)
[13] = 3 mg A, Red Septa, High (high population conventional orchard)
[14] = 3 mg A, Red Septa, Low (low population organic orchard)
[15] = 10 mg A, Gray Septa, High (high population conventional orchard)
[16] = 10 mg A, Gray Septa, Low (low population organic orchard)
[17] = 10 mg A, Red Septa, High (high population conventional orchard)
[18] = 10 mg A, Red Septa, Low (low population organic orchard)
[19] = 20 mg A, Gray Septa, High (high population conventional orchard)
[20] = 20 mg A, Gray Septa, Low (low population organic orchard)
[21] = 20 mg A, Red Septa, High (high population conventional orchard)
[22] = 20 mg A, Red Septa, Low (low population organic orchard)
[23] = Gray Septa, High (high population conventional orchard)
[24] = Gray Septa, Low (low population organic orchard)
[25] = Red Septa, High (high population conventional orchard)
[26] = Red Septa, Low (low population organic orchard)

## CC(C)CCO [3-Methyl Butan-1-ol]
[1]; Orchard #1
  % of pheromone-alone capture (line under HPV + Pheromone value): 118%
[1]; Orchard #1, 10 mg/red septum
  Male CM Captured, HPV + Pheromone Trap: ± SEM: 1.29 ± 0.25 ♂♂/trap/night
[1]; Orchard #2
  % of pheromone-alone capture (line under HPV + Pheromone value): 86%
[1]; Orchard #2, 10 mg/red septum
  Male CM Captured, HPV + Pheromone Trap ± SEM: 1.19 ± 0.22 ♂♂/trap/night
[1]; Orchard #3
  % of pheromone-alone capture (line under HPV + Pheromone value): 95%
[1]; Orchard #3, 10 mg/red septum
  Male CM Captured, HPV + Pheromone Trap: ± SEM: 2.82 ± 0.56 ♂♂/trap/night
[1]; Orchard #4
  % of pheromone-alone capture (line under HPV + Pheromone value): 115%
[1]; Orchard #4, 10 mg/red septum
  Male CM Captured, HPV + Pheromone Trap: ± SEM: 2.91 ± 0.49 ♂♂/trap/night
[1]
  Average % Change in ♂♂ CM Capture: 104%

## C=C/C(C)=C/CC=C(C)C [(E)-β-Ocimene]
[1]; Orchard #1
  % of pheromone-alone capture (line under HPV + Pheromone value): 135%
[1]; Orchard #1, 10 mg/red septum
  Male CM Captured, HPV + Pheromone Trap: ± SEM: 1.40 ± 0.25 ♂♂/trap/night
[1]; Orchard #2
  % of pheromone-alone capture (line under HPV + Pheromone value): 114%
[1]; Orchard #2, 10 mg/red septum
  Male CM Captured, HPV + Pheromone Trap ± SEM: 0.88 ± 0.17 ♂♂/trap/night
[1]; Orchard #3
  % of pheromone-alone capture (line under HPV + Pheromone value): 102%
[1]; Orchard #3, 10 mg/red septum
  Male CM Captured, HPV + Pheromone Trap: ± SEM: 2.38 ± 0.34 ♂♂/trap/night
[1]; Orchard #4
  % of pheromone-alone capture (line under HPV + Pheromone value): 96%
[1]
  Average % Change in ♂♂ CM Capture: 112%

## CCCCC/C=C\C=C\C(=O)OCC [A, ethyl (2E,4Z)-2,4-decadienoate]
[2]; [4]
  ♀♀ ± SEM: 1.40 ± 0.52
  ♂♂ ± SEM: 5.88 ± 1.80
[2]; [5]
  ♀♀ ± SEM: 1.05 ± 0.49
  ♂♂ ± SEM: 0.97 ± 0.47
[2]; [6]
  ♀♀ ± SEM: 2.76 ± 0.80
  ♂♂ ± SEM: 1.04 ± 0.41
[2]; [7]
  ♀♀ ± SEM: 0.43 ± 0.18
  ♂♂ ± SEM: 0.78 ± 0.55
[2]; [8]
  ♀♀ ± SEM: 4.77 ± 1.34
  ♂♂ ± SEM: 3.86 ± 1.55
[2]; [9]
  ♀♀ ± SEM: 0.84 ± 0.30
  ♂♂ ± SEM: 1.13 ± 0.63
[2]; 1.0 mg A, Red Septa, High (high population conventional orchard)
  ♀♀ ± SEM: 4.12 ± 1.37
[2]; [10]
  ♀♀ ± SEM: 1.06 ± 0.49
  ♂♂ ± SEM: 1.38 ± 0.60
[2]; [11]
  ♀♀ ± SEM: 5.25 ± 1.33
  ♂♂ ± SEM: 6.20 ± 1.25
[2]; [12]
  ♀♀ ± SEM: 1.18 ± 0.37
  ♂♂ ± SEM: 2.02 ± 0.72
[2]; [13]
  ♀♀ ± SEM: 6.46 ± 1.98
  ♂♂ ± SEM: 4.40 ± 1.28
[2]; [14]
  ♀♀ ± SEM: 0.69 ± 0.26
  ♂♂ ± SEM: 0.78 ± 0.35
[2]; [15]
  ♀♀ ± SEM: 5.77 ± 1.30
  ♂♂ ± SEM: 3.59 ± 0.92
[2]; [16]
  ♀♀ ± SEM: 1.28 ± 0.33
  ♂♂ ± SEM: 1.29 ± 0.36
[2]; [17]
  ♀♀ ± SEM: 7.04 ± 1.90
  ♂♂ ± SEM: 4.25 ± 0.99
[2]; [18]
  ♀♀ ± SEM: 0.57 ± 0.15
  ♂♂ ± SEM: 0.87 ± 0.41
[2]; [19]
  ♀♀ ± SEM: 3.59 ± 1.46
  ♂♂ ± SEM: 6.14 ± 1.46
[2]; [20]
  ♀♀ ± SEM: 2.83 ± 1.07
  ♂♂ ± SEM: 2.97 ± 0.97
[2]; [21]
  ♀♀ ± SEM: 5.43 ± 1.78
  ♂♂ ± SEM: 2.87 ± 0.88
[2]; [22]
  ♀♀ ± SEM: 0.66 ± 0.15
  ♂♂ ± SEM: 0.94 ± 0.20
[2]; [23]
  ♂♂ ± SEM (50 mg A): 10.15 ± 2.04
  ♂♂ ± SEM (under 50 mg A): 6.18 ± 1.60
[2]; [24]
  ♂♂ ± SEM (50 mg A): 1.79 ± 0.69
  ♂♂ ± SEM (under 50 mg A): 2.04 ± 0.83
[2]; [25]
  ♂♂ ± SEM (50 mg A): 7.30 ± 2.00
  ♂♂ ± SEM (under 50 mg A): 3.63 ± 0.93
[2]; [26]
  ♂♂ ± SEM (50 mg A): 0.74 ± 0.24
  ♂♂ ± SEM (under 50 mg A): 0.57 ± 0.18

## CCCCO [Butan-1-ol]
[1]; Orchard #1
  % of pheromone-alone capture (line under HPV + Pheromone value): 101%
[1]; Orchard #1, 10 mg/red septum
  Male CM Captured, HPV + Pheromone Trap: ± SEM: 0.74 ± 0.17 ♂♂/trap/night
[1]; Orchard #2
  % of pheromone-alone capture (line under HPV + Pheromone value): 117%
[1]; Orchard #2, 10 mg/red septum
  Male CM Captured, HPV + Pheromone Trap ± SEM: 2.73 ± 0.56 ♂♂/trap/night
[1]; Orchard #3
  % of pheromone-alone capture (line under HPV + Pheromone value): 122%
[1]; Orchard #3, 10 mg/red septum
  Male CM Captured, HPV + Pheromone Trap: ± SEM: 2.95 ± 0.43 ♂♂/trap/night
[1]; Orchard #4
  % of pheromone-alone capture (line under HPV + Pheromone value): 96%
[1]; Orchard #4, 10 mg/red septum
  Male CM Captured, HPV + Pheromone Trap: ± SEM: 2.96 ± 0.62 ♂♂/trap/night
[1]
  Average % Change in ♂♂ CM Capture: 109%

## CCCCC/C=C/C=C/C(=O)OCCCC [Butyl (2E,4E)-2,4-Decadienoate]
[3]
  FEMALE CM Captured: ♂♂/trap/night ± SEM: 0 ♀♀/trap/night
  MALE CM Captured: ♂♂/trap/night ± SEM: 0.02 ± 0.02 ♂♂/trap/night
  Total CM Captured: CM/trap/night ± SEM: 0.02 ± 0.02 CM/trap/night

## CCCCC/C=C\C=C\C(=O)OCC [Ethyl (2E,4Z)-2,4-Decadienoate, #1 (95.3%)]
[3]
  MALE CM Captured: ♂♂/trap/night ± SEM: 1.67 ± 0.41 ♂♂/trap/night
  Total CM Captured: CM/trap/night ± SEM: 4.49 ± 1.29 CM/trap/night

## CCCCC/C=C\C=C\C(=O)OCC [Ethyl (2E,4Z)-2,4-Decadienoate, #2 (88.5%)]
[3]
  MALE CM Captured: ♂♂/trap/night ± SEM: 1.89 ± 0.79 ♂♂/trap/night
  Total CM Captured: CM/trap/night ± SEM: 4.25 ± 1.43 CM/trap/night

## C=C1/C=C/[C@H](C(C)C)CC/C(C)=C/CC1 [Germacrene-D]
[1]; Table 9
  % Change (Ph+HPV/Phxl00) in Male CM Capture: 109%
  Impact of HPV Blend on Pheromone Attractancy to Male CM: No Effect
[1]; Table 9, 10 mg/red septum
  Male CM Capture with Pheromone + HPV Blend: ♂♂/trap/night ± SEM: 0.86 ± 0.19 ♂♂/trap/night
